Source: US8852657B2, “Chromones as therapeutic agents” (Unigen, Inc., priority 2007, dated 2014)
Entries after “also recorded” stand apart in the source; their conditions may differ.

Key:
[1] = test system: C57BL/6J mice fed high fat diet; experiment: Plasma insulin level (ELISA), high-fat diet induced model; assay type: in vivo, mouse; conditions: day 14 of treatment after 8 weeks high-fat diet; P<0.05; GW1929 5 mg/kg, UP394 and UP396 100 mg/kg
Source text: A high-fat diet induced animal model was developed and used for evaluation of potential therapeutic effects of chromone extracts. The C57BL/6J is a clinically relevant animal model that can be used in studies on metabolic disorders, pathophysiology of impaired glucose tolerance and for development of novel therapeutic agents (Ahren et al. (2004) Diabetes 53 (Supplement 3):S215-S219; Laakso et al. (2004) Diabetes Care 27:2253-2259; Kahn et al. (2004) Diabetes 53:3274-3285; Scheurink et al. (1998) European J Endo. 139:461-467; Yuan et al. (2002) Diabetes 51:1851-1858; Reitman et al. (2005) Endocrinology 145:3258-3264; Vlassara et al. (2005) Diabetes 54:2314-2319; Cawthome et al. (2002) Molecular and Cellular Proteomics 1:509-516). Methodology of model induction was first explained by Surwit et al. in 1988 (Diabetes, 37:1163-1167). In brief, impaired glucose tolerance and metabolic disorder like symptoms were inflicted successfully in C57BL/6J mice when fed with high fat diets for 8 weeks. Male C57BL/6J mice were purchased from Jackson Laboratories (Bar Harbor, Me.) at age of 6 weeks. One week after acclimation period, animals were divided into groups (n=5 or 6) and provided with high fat (45% kcal) rodent pellet (Research diets, Inc., New Brunswick, N.J.) and water ad libitum for 12 weeks except at times of glucose and insulin tolerance tests at which feed was withheld for three hours. Animals were maintained in a temperature controlled room (22.2° C.) on a 12 hour light-dark cycle. Blood glucose, cholesterol, and triglyceride were monitored every week for 12 weeks as described previously. Body weight measurement was taken once a week for 12 weeks.
Once induction of the metabolic disorders was confirmed by weekly monitoring of selected parameters (glucose, triglyceride and cholesterol) i.e. on the 8th week, daily intraperitoneal treatment was initiated and maintained for 4 weeks. […]
The plasma insulin levels were measured with an ELISA kit for insulin (Crystal Chem—Chicago, Ill.). […]

[2] = test system: adiponectin secreted into the media by differentiated 3T3-L1 cells; experiment: Adiponectin ELISA assay, improved protocol (differentiated 2 days, treated 48 hours); assay type: cell-based, mouse; conditions: for activity in the adiponectin assay: sub-fractions and isolated compounds of P0017-OE
Experimental: (§1) 3T3-L1, an embryonic mouse cell line (American Type Culture Collection, Manassas, Va.), is a sub-strain of the 3T3 swiss albino line that can differentiate from a pre-adipose to adipose state. These preadipocytes were cultured in Dulbecco's modified Eagle medium (DMEM) containing 10% fetal bovine serum (FBS) (Mediatech, Inc., Herndon, Va.).
(§2) To establish a differentiation protocol, the 3T3-L1 cells were plated into 96-well plates and cultured overnight to confluence. The confluent cells were induced to differentiate 2 days post-confluence. The induction was conducted with 0.5 mM isobutylmethylzanthine, 1.0 μM dexamethasone and 1.7 μM insulin (Sigma-Aldrich, St. Louis, Mo.) supplemented into culture media. On the 7th day the adipocytes were treated with the control compounds or plant extracts for 24 hours. All controls and plant extracts were solublized in DMSO and added to the culture media at 1% of the total volume. Cell media was collected to measure the levels of adiponectin and assayed by enzyme-linked immunosorbent assay (ELISA) according to the manufacturer's protocol (R&D Systems, Minneapolis, Minn.). The assay sensitivity ranged from 31.25-2000 pg/mL. The positive controls were tested in a range from 0.01 to 300 μM (FIG. 1).
Due to the poor signal to background ratio of the assay (less than 2), the previously mentioned protocol needed to be improved. Adipocytes were plated and differentiated as previously described. The cells were differentiated in the differentiation medium for 48 hours either with or without the addition of insulin. Then the cells were treated with the control compounds or plant extracts for only 48 hours post-differentiation. All other parameters were the same as previously mentioned. The indomethacin (FIG. 1) and troglitazone (data not shown) controls were tested at 10-100 μM and 3-30 μM respectively. The greatest increase in the level of adiponectin was 52-fold above the signal of baseline which was achieved by indomethacin treatment at 100 μM, while the lowest increase was 7-fold with indomethacin at 10 μM (FIG. 1B).

[3] = test system: human intestinal bacteria; conditions: cited from earlier work
tyrosinase = conditions: in vitro; Yagi et al. (1987); cited from earlier work
[4] = test system: adiponectin secreted into the media by differentiated 3T3-L1 cells; experiment: Adiponectin ELISA assay, previously published protocol (differentiated 7 days, treated 24 hours); assay type: cell-based, mouse; conditions: for fold increase in adiponectin level: 1 μM, greatest fold increase, differentiated 7 days, treated 24 hours
Experimental: as §1, §2

[5] = test system: C57BL/6J mice fed high fat diet; experiment: Intraperitoneal glucose tolerance test, high-fat diet induced model (UP394/UP396); assay type: in vivo, mouse; conditions: day 18; times 60, 90 and 120 minutes; p<0.05; GW1929 5 mg/kg, UP396 100 mg/kg intraperitoneally
Source text: A high-fat diet induced animal model was developed and used for evaluation of potential therapeutic effects of chromone extracts. The C57BL/6J is a clinically relevant animal model that can be used in studies on metabolic disorders, pathophysiology of impaired glucose tolerance and for development of novel therapeutic agents (Ahren et al. (2004) Diabetes 53 (Supplement 3):S215-S219; Laakso et al. (2004) Diabetes Care 27:2253-2259; Kahn et al. (2004) Diabetes 53:3274-3285; Scheurink et al. (1998) European J Endo. 139:461-467; Yuan et al. (2002) Diabetes 51:1851-1858; Reitman et al. (2005) Endocrinology 145:3258-3264; Vlassara et al. (2005) Diabetes 54:2314-2319; Cawthome et al. (2002) Molecular and Cellular Proteomics 1:509-516). Methodology of model induction was first explained by Surwit et al. in 1988 (Diabetes, 37:1163-1167). […] Blood glucose, cholesterol, and triglyceride were monitored every week for 12 weeks as described previously. […]
An intraperitoneal glucose tolerance test was conducted using the C57BL/6J mice as described in Example 12 at a dose of 2 g/kg on day 18 of treatment with intraperitoneal administration of GW1929 (5 mg/kg), UP394 (100 mg/kg), UP396 (100 mg/kg) and vehicle. […] Blood glucose levels were measured at time 0, 30, 60, 90, and 120 minutes. […]

Compound | plasma insulin levels compared to vehicle [1] | fold increase in adiponectin level ([2]; 30 μM, treated 48 hours) [fold] | activity in the adiponectin assay [2] | fold increase in adiponectin level [4] [fold] | further results
CC(=O)Cc1cc(=O)c2c(C)cc(O)c([C@@H]3O[C@H](CO)[C@@H](O)[C@H](O)[C@H]3O)c2o1 [UP394, aloesin] | decreased the insulin levels significantly; also recorded: Significant decreases in plasma insulin levels | 2 | active in increasing adiponectin production |  | activity in the adiponectin assay ([2]; listed as P0017-AC1): exhibited activity in the adiponectin assay; cleavage of the c-glucosyl bond [3]: can be cleaved; inhibition of tyrosinase activity (tyrosinase): strong inhibitor
Cc1cc(O)c(C2OC(O)C(O)C(O)C2CO)c2oc(CC(C)O)cc(=O)c12 (stereo not drawn) [UP396, aloesinol] |  | 3.2 |  |  | 
COc1ccc2c(c1)c(CC(=O)O)c(C)n2C(=O)c1ccc(Cl)cc1 [indomethacin] |  |  |  | 1.6 | signal to background ratio of the assay ([4]; best ratio, indomethacin at concentrations between 0.1-300 μM, published experimental conditions): 1.6; fold increase in adiponectin level ([2]; 10 μM, differentiated 2 days, treated 2 days): 7 fold; fold increase in adiponectin level ([2]; 100 μM, differentiated 2 days, treated 2 days): 52 fold
Cc1c(C)c2c(c(C)c1O)CCC(C)(COc1ccc(CC3SC(=O)NC3=O)cc1)O2 (stereo not drawn) [troglitazone] |  | 49 |  | 1.7 | fold increase in adiponectin level ([2]; 3 μM, treated 48 hours): 24 fold
aloesinol [UP396] | decreased the insulin levels significantly; also recorded: Significant decreases in plasma insulin levels |  | active in increasing adiponectin production |  | glucose utilization in intraperitoneal glucose tolerance test compared to vehicle [5]: Significant glucose utilization; activity in the adiponectin assay ([2]; listed as P0017-AC2): exhibited activity in the adiponectin assay
